# Source: US12458661B2, “Selenium disulfide compositions for use in treating meibomian gland dysfunction” (priority 2016, dated 2025)
# Assay: Aggregation of SeS2 on contact with aqueous medium
# Format: physicochemical
# From the text: Contacting SeS2 with aqueous medium causes immediate and spontaneous aggregation, such that SeS2 particles with an average size of 5 to 10 microns will form large aggregates of 50 to 500 microns average size. […] Surfactants and various suspending agents are required to stabilize SeS2 suspension in liquid and semi-solid dosage forms in order to enable its topical application.
# Selenium disulfide forms agglomerates under aqueous conditions. Contacting selenium disulfide with aqueous medium causes immediate and spontaneous aggregation, causing selenium disulfide particles, with an initial average diameter of 5 to 10 μm, to aggregate into large clumps of 50 to 500 μm average diameter.
smiles,measurement,setting,value
"S=[Se]=S [SeS2, selenium disulfide]",Average size of aggregates formed on contact with aqueous medium,SeS2 particles of initial average size 5 to 10 microns,50 to 500 microns
same,Average diameter of clumps formed on contact with aqueous medium,initial average diameter 5 to 10 μm,50 to 500 μm
